Data on 14 compounds can be found in patent publication US20170137387A1, “PHARMACOLOGICALLY ACTIVE QUINAZOLINEDIONE DERIVATIVES” (ORION CORPORATION, priority 2014, published 2017).

The target of test [1] is T1, human GABAB1 and GABAB2 receptor subunits (Homo sapiens, UniProt O75899+Q9UBS5).
T1 construct: expressed in transfected cells; host or cells: CHO cells
As to the kind of experiment: Potentiation of GABA dose-response, FLIPR calcium assay. It counts as cell-based. Particulars: compound at 10 μM; EC50 of GABA divided by EC50 of GABA in the presence of positive allosteric modulator. How it is done:
(§1) CHO cells expressing the human GABAB1 and GABAB2 receptor subunits co-expressing promiscuous Galpha16 proteins to force couple the receptor to the intracellular calcium signalling pathway were used to study GABAB pharmacology in vitro. The cells were maintained at 37° C. in a 5% CO2 95% air atmosphere in HAM F-12 medium supplemented with 10% foetal bovine serum and selection antibiotics.
(§2) The day before the experiment the cells were detached and plated into black-walled clear bottom 384-well plates at a cell density of 20 000 cells per well. The growth medium was removed and the cells were incubated with FLIPR Calcium 5 Assay reagent (Molecular Devices, CA, USA) diluted 1:1 in Probenecid-Ringer for 1 h at 37° C. in dark. Probenecid-Ringer buffer consisted of 150 mM NaCl, 3 mM KCl, 1.2 mM MgCl2, 1 mM CaCl2, 5 mM glucose, 20 mM 2-(4-(2-hydroxyethyl)piperazin-1-yl)ethanesulfonic acid (HEPES), and 2.5 mM Probenecid (pH 7.4 adjusted with 1.0 M NaOH and osmolarity adjusted to […]). Compounds were dissolved in Probenecid-Ringer. […] The samples were excited at 470-495 nm and emission was detected at 515-575 nm. All experiments were performed at 37° C.
(§3) Baseline fluorescence minimum was subtracted from maximum for the calculation of agonism and positive allosteric modulator pharmacology. Both in the agonism mode and in the allosteric mode, the efficacy was related to the intrinsic activity (IA) of the endogenous agonist GABA at 30 μM (positive allosteric modulator efficacy at 10 μM/GABA efficacy or agonism efficacy at 30 μM/GABA efficacy). To determine potentiation of GABA dose-response, the compounds, at a concentration of 10 μM diluted in Probenecid-Ringer, were added by FLIPR tetra followed by addition of GABA (diluted in water in the concentration range 0.123-10 μM). The EC50 values were determined using a four-parameter logistic fit (model 205 in ActivityBase XE). The EC50 value of GABA was divided with the EC50 value of GABA in the presence of positive allosteric modulator to determine potentiation of GABA dose-response EC50 value.

The target of test [2] is T1, human GABAB1 and GABAB2 receptor subunits. Briefly: Agonism and positive allosteric modulator pharmacology in vitro, two-addition FLIPR calcium assay. It counts as cell-based. Particulars: CHO cells co-expressing Galpha16; for IA (GABAB agonism): agonism efficacy at 30 μM / GABA efficacy at 30 μM; for IA (GABAB positive allosteric modulation): positive allosteric modulator efficacy at 10 μM (with EC10.5 GABA) / GABA efficacy at 30 μM. The protocol:
as §1, §2
A two-addition protocol was used to determine agonism and positive allosteric modulator pharmacology in the same assay using a kinetic read out. Agonism pharmacology of compounds was studied in the first addition in the concentration range 0.123-30 μM in quadruplicate at each concentration. In the second addition, a low (EC10.5) concentration of GABA was applied to detect the positive allosteric modulator pharmacology of the compounds to be studied. The EC10.5 concentration was determined from the GABA EC50 value using the formula ECF≈(F/(100-F))^1/H·EC50, wherein F is the fraction of full response and H is Hill slope.
as §3

T1 sequence (Q9UBS5 15-961 limits assumed): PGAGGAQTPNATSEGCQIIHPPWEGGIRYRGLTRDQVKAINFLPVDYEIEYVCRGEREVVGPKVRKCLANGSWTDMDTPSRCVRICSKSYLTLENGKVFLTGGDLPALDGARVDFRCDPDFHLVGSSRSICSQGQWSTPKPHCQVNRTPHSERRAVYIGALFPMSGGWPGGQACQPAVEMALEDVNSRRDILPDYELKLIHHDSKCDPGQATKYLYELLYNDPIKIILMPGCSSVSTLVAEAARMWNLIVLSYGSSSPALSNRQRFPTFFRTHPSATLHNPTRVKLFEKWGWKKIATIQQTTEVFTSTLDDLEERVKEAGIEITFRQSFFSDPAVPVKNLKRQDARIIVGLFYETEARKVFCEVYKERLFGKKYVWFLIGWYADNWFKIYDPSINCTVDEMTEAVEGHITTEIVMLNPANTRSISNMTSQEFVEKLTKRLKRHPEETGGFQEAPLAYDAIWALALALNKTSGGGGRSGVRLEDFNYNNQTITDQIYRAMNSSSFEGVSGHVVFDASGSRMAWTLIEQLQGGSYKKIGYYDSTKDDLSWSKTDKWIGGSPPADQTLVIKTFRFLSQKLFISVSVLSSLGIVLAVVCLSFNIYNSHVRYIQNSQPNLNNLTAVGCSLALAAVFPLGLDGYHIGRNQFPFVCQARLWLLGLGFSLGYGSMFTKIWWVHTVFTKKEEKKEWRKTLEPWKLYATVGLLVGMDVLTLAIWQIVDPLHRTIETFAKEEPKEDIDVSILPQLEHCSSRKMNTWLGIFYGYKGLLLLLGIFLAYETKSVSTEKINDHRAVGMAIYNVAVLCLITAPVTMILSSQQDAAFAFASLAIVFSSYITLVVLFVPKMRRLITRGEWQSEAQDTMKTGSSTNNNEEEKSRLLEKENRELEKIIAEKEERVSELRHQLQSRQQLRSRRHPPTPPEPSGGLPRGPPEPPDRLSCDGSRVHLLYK
T1 sequence (O75899 42-941): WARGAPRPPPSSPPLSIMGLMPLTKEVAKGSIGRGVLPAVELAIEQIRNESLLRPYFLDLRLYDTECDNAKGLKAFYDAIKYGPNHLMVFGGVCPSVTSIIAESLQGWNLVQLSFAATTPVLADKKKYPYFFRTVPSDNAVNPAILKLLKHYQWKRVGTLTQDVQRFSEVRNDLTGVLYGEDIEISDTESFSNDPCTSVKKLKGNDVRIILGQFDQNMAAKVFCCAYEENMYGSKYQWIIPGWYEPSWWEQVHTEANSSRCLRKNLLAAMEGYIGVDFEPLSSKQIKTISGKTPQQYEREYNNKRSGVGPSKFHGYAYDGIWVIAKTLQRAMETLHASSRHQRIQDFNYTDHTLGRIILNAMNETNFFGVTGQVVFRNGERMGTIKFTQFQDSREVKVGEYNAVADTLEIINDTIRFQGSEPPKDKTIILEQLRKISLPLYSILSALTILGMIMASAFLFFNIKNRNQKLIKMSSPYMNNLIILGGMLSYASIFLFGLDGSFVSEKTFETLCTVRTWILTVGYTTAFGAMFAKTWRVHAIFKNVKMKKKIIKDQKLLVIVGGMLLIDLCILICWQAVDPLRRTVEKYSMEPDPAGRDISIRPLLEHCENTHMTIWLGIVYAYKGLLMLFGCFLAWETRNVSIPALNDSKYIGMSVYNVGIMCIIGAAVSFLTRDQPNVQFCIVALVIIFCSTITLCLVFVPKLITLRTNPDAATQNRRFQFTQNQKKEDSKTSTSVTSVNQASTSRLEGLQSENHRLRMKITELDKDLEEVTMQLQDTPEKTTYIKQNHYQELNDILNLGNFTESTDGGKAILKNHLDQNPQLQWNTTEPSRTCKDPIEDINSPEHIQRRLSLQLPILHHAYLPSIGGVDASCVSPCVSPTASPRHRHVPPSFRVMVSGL

Consider `Cn1c(=O)n(C2(c3ccc(Cl)cc3)CC2)c(=O)c2ccc(F)cc21` [Example 43, 3-(1-(4-Chlorophenyl)cyclopropyl)-7-fluoro-1-methylquinazoline-2,4(1H,3H)-dione], for which, in test [1], the “Potentiation of GABA (fold)” value stood at 3.8 fold. For the same compound, in test [2], the “IA (GABAB agonism)” value was 0.17 and the “IA (GABAB positive allosteric modulation)” value is listed as 0.51.

As to `CC(C)(O)Cn1c(=O)n(Cc2ccc(Br)cc2)c(=O)c2cc(F)c(Cl)cc21` [Example 49, 3-(4-Bromobenzyl)-7-chloro-6-fluoro-1-(2-hydroxy-2-methylpropyl)quinazoline-2,4(1H,3H)-dione], in test [1], the “Potentiation of GABA (fold)” value is on record as 31 fold. Moreover, in test [2], the “IA (GABAB agonism)” value was found to be 0.28 and the “IA (GABAB positive allosteric modulation)” value worked out at 0.61.

As for `CC1(Cn2c(=O)n(Cc3ccc(Br)cc3)c(=O)c3cc(F)c(Cl)cc32)COC1` [Example 50, 3-(4-Bromobenzyl)-7-chloro-6-fluoro-1-((3-methyloxetan-3-yl)methyl)quinazoline-2,4(1H,3H)-dione], the “Potentiation of GABA (fold)” value in test [1] was 22 fold. Also, in test [2], the “IA (GABAB agonism)” value came to 0.04 and the “IA (GABAB positive allosteric modulation)” value is 0.73.

Consider `CC(C)(O)Cn1c(=O)n(Cc2ccc(Br)cc2)c(=O)c2cc(F)c(F)c(F)c21` [Example 60, 3-(4-Bromobenzyl)-6,7,8-trifluoro-1-(2-hydroxy-2-methylpropyl)quinazoline-2,4(1H,3H)-dione], for which, in test [1], the “Potentiation of GABA (fold)” value amounted to 89 fold. Also, in test [2], the “IA (GABAB agonism)” value is on record as 0.20 and the “IA (GABAB positive allosteric modulation)” value is listed as 0.85.

Regarding `CC1(C)Cn2c(=O)n(Cc3ccc(Br)cc3)c(=O)c3cc(F)c(F)c(c32)O1` [Example 66, 6-(4-Bromobenzyl)-9,10-difluoro-2,2-dimethyl-2H-[1,4]oxazino[2,3,4-ij]quinazoline-5,7(3H,6H)-dione], in test [1], the “Potentiation of GABA (fold)” value was 12.7 fold. Moreover, in test [2], the “IA (GABAB agonism)” value is listed as 0.04 and the “IA (GABAB positive allosteric modulation)” value was 0.77.

On to `CC1(C)Cn2c(=O)n(Cc3ccc(Cl)cc3)c(=O)c3ccc(Cl)c(c32)O1` [Example 67, 10-Chloro-6-(4-chlorobenzyl)-2,2-dimethyl-2H-[1,4]oxazino[2,3,4-ij]quinazoline-5,7(3H,6H)-dione], for which the “Potentiation of GABA (fold)” value in test [1] is 9.5 fold. Also, in test [2], the “IA (GABAB agonism)” value is recorded as 0.02 and the “IA (GABAB positive allosteric modulation)” value turned out to be 0.71.

For `C[C@@H](O)Cn1c(=O)n(Cc2ccc(Cl)cc2)c(=O)c2ccc(Cl)c(F)c21` [Example 82, (R)-7-Chloro-3-(4-chlorobenzyl)-8-fluoro-1-(2-hydroxypropyl)quinazoline-2,4(1H,3H)-dione], the “Potentiation of GABA (fold)” value in test [1] is 24.5 fold. Also, in test [2], the “IA (GABAB agonism)” value is 0.18 and the “IA (GABAB positive allosteric modulation)” value was 0.71.

With `COc1c(F)cc2c(=O)n(Cc3ccc(Br)cc3)c(=O)n3c2c1OC(C)(C)C3` [Example 84, 6-(4-Bromobenzyl)-9-fluoro-10-methoxy-2,2-dimethyl-2H-[1,4]oxazino[2,3,4-ij]quinazoline-5,7(3H,6H)-dione], the “Potentiation of GABA (fold)” value in test [1] worked out at 33.4 fold. In test [2], the “IA (GABAB agonism)” value was found to be 0.10 and the “IA (GABAB positive allosteric modulation)” value is given as 0.86.

On to `CCn1c(=O)n(Cc2ccc(Br)cc2)c(=O)c2ccc(F)cc21` [Example 87, 3-(4-Bromobenzyl)-1-ethyl-7-fluoroquinazoline-2,4(1H,3H)-dione], for which, in test [1], the “Potentiation of GABA (fold)” value worked out at 3.3 fold. Further, in test [2], the “IA (GABAB agonism)” value is given as 0.11 and the “IA (GABAB positive allosteric modulation)” value is 0.44.

Regarding `C[C@H](c1ccc(Cl)cc1)n1c(=O)c2ccc(Cl)cc2n(CC(C)(C)O)c1=O` [Example 117, (R)-7-Chloro-3-(1-(4-chlorophenyl)ethyl)-1-(2-hydroxy-2-methylpropyl)quinazoline-2,4(1H,3H)-dione], the “Potentiation of GABA (fold)” value in test [1] amounted to 19.8 fold. Also, in test [2], the “IA (GABAB agonism)” value stood at 0.09 and the “IA (GABAB positive allosteric modulation)” value is given as 0.51.

With `CC(C)(O)Cn1c(=O)n(Cc2ccc(Br)cc2)c(=O)c2ccc(Cl)c(F)c21` [Example 123, 3-(4-Bromobenzyl)-7-chloro-8-fluoro-1-(2-hydroxy-2-methylpropyl)quinazoline-2,4(1H,3H)-dione], the “Potentiation of GABA (fold)” value in test [1] was 60.4 fold. Besides, in test [2], the “IA (GABAB agonism)” value was determined as 0.13 and the “IA (GABAB positive allosteric modulation)” value was determined as 0.71.

Turning to `CC1(C)Cn2c(=O)n(Cc3ccc(Br)cc3)c(=O)c3ccc(Cl)c(c32)O1` [Example 127, 6-(4-Bromobenzyl)-10-chloro-2,2-dimethyl-2H-[1,4]oxazino[2,3,4-ij]quinazoline-5,7(3H,6H)-dione], the “Potentiation of GABA (fold)” value in test [1] is on record as 6.7 fold. In test [2], the “IA (GABAB agonism)” value is 0.02 and the “IA (GABAB positive allosteric modulation)” value is 0.53.

As to `CC(C)(O)Cn1c(=O)n(Cc2ccc(Cl)cc2)c(=O)c2cc(Cl)cc(F)c21` [Example 131, 6-Chloro-3-(4-chlorobenzyl)-8-fluoro-1-(2-hydroxy-2-methylpropyl)quinazoline-2,4(1H,3H)-dione], the “Potentiation of GABA (fold)” value in test [1] came out at 42.6 fold. In test [2], the “IA (GABAB agonism)” value came to 0.19 and the “IA (GABAB positive allosteric modulation)” value came to 0.89.

Regarding `C[C@H](c1ccc(Cl)cc1)n1c(=O)c2ccc(Cl)cc2n(CC2(C)COC2)c1=O` [Example 137, (R)-7-Chloro-3-(1-(4-chlorophenyl)ethyl)-1-((3-methyloxetan-3-yl)methyl)quinazoline-2,4(1H,3H)-dione], the “Potentiation of GABA (fold)” value in test [1] worked out at 19.7 fold. Besides, in test [2], the “IA (GABAB agonism)” value was found to be 0.05 and the “IA (GABAB positive allosteric modulation)” value was 0.64.
